melting point | Compound
202 to 204 °C | CCN1CCC(NC(=O)Cn2c(-c3ccc(Br)cc3)nc3cccnc32)C1 (stereo not given)
147 to 148 °C | Cn1c(C(F)(F)F)ccc(-c2cc(S(C)=O)c(Cl)cc2F)c1=O (stereo not given)
168 to 169 °C | N#Cc1ccc(C(Cl)=NNc2c(Cl)cc(C(F)(F)F)cc2Cl)cc1
125 to 126 °C | Cc1cc(OC(F)F)c([N+](=O)[O-])cc1S(=O)(=O)N(C)C
148 to 149 °C | CCn1ncc2nc(C(=O)O)c(C)nc21
91 to 93 °C | O=C(c1ccccc1)C1CCN(Cc2cncc(-c3ccccc3)c2)CC1
320 to 322 °C | NNC(=O)Nc1nc2ccccc2[nH]1
128 to 134 °C | Cc1c(CCC(=O)O)c[nH]c1C=O
153 to 154 °C | Clc1cccc(-c2nnnn2Cc2cscn2)c1Cl
70 °C | CCOC(=O)c1nc2ccc(OC)cc2nc1SCC
195 to 199 °C | NS(=O)(=O)c1cc2c(Cl)c(N3CCOCC3)ccc2s1
246 to 248 °C | Nc1n[nH]c2cc(CN3CCN(Cc4cc5ccc(Cl)cc5s4)CC3=O)ccc12
> 250 °C | CC1COCc2nc3c(N)nc4cc(C=CC(=O)N(C)C)ccc4c3n21 (stereo not given)
257 °C | CCCCCCCCC(C)(C)c1cc(=O)c2cc(O)ccc2o1
281 °C | COc1ccc(C(=O)C2=C(O)C(=O)N(c3nnc(C)s3)C2c2cccc(C(=O)O)c2)cc1 (stereo not given)
205 to 207 °C | CCOC(=O)Cn1c(CC(=O)O)cc2c(Cl)c(Cl)ccc21
143 to 144 °C | CCOC(=O)c1[nH]c2cc(Cl)cc(Cl)c2c1NCC(=O)c1ccccc1
52 to 53 °C | CC(C)C(O)(Cc1ccccc1)Cc1ccccc1
172 to 173 °C | Cc1cc(NC(=O)NN(c2ccccc2)c2cccc(CN)c2)ccc1N1CCCCC1=O
190 to 192 °C | CCCCNc1ncnc2c1ncn2CCCN1CCC(NC(=O)c2ccccc2)CC1
176 to 178 °C | N=C(N)Nc1nc(-c2ccccc2[N+](=O)[O-])cs1
112 to 116 °C | CCCC1=C(C(=O)OCC)C(c2ccccc2Cl)c2cnn(C(=O)OC(C)(C)C)c2N1 (stereo not given)
214 to 215 °C | COc1ccccc1Cc1ccc2nc(N)nc(N)c2c1
101 to 104 °C | CCCCCCCc1ccc(C(=O)CCC(=O)O)cc1

melting point | Compound
157 to 159 °C | CCC[C@H](Oc1cc(C)c(-n2cc(C(F)(F)F)cn2)c(C)c1)c1ccc(C(=O)NCCC(=O)O)cc1
138 to 141 °C | CC(=O)CC(=O)N(C)c1cccc(-c2ccc3nnc(C)n3n2)c1
248 °C | COc1ccc(C(=O)c2ccc3[nH]c(=O)nc(-c4cccc(Cl)c4)c3c2)cc1
224 to 226 °C | CCOc1ccc(Nc2ncc3c(n2)N(c2ccccc2)C(=O)N(c2c(Cl)cccc2Cl)C3)cc1
235 to 240 °C | CC(=O)Nc1ccc(C=CC2CSC(=O)NN2)cc1 (stereo not given)
142 to 144 °C | C=CCc1[nH]cc(C#N)c1-c1ccc(Cl)cc1C(=O)c1ccccc1F
148 to 150 °C | CCOC(=O)c1cnn2c(NCc3ccc(-c4ccccc4C#N)cc3)ccnc12
219 to 222 °C | CCOP(=O)(Cc1cc(=O)[nH]c2cc(Cl)c(Cl)cc12)OCC
121 to 124 °C | C=COc1nc2c(c3ccccc13)c1cc(Cl)ccc1n2C
281 to 284 °C | Nc1nc2cc(-c3cccc(C(=O)N4CCCC4)c3)ccc2c2c1nc(CO)n2CC1CCOCC1
193 to 195 °C | CCOC(=O)c1cn(C2CC2)c2c(F)c(NCCO)c(F)c(F)c2c1=O
142 °C | CC1CCN(c2ccc([N+](=O)[O-])cc2C(=O)c2ccc(Br)cc2)CC1
149 °C | O=S1(=O)c2cccc3cccc(c23)N1CCCN1CCN(c2ccc(Br)cc2)CC1
87 to 89 °C | CCCCCCCCCCOc1ccc(-c2ccc(CCC(C)O)cc2)cc1 (single isomer, unassigned; (+))
201 to 202 °C | CSc1ccc(CC(=O)NC(NC(Cc2ccccc2C)=NC#N)C(C)(C)C)cc1 (stereo not given)
112 to 113 °C | O=C1C(=O)N(Cc2ccc(Br)cc2)c2ccc(S(=O)(=O)N3CCCC3COc3ccccc3)cc21 (stereo not given)
205 to 207 °C | CCCCN1CNC(=O)NC1=O
168 °C | COC(=O)c1cc2cc([N+](=O)[O-])ccc2o1
267 to 269 °C | Nc1c2c(=O)[nH]c(C(F)(F)F)nc2nn1-c1ccccc1
266 to 268 °C | O=C(O)c1ccc(S(=O)(=O)Nc2cc3c4c(c2)CCCC4CCC3)cc1
121 to 122 °C | COc1ccc(C2=CC=CCC2(OC(C)C)C(=O)O)c(OC)c1 (stereo not given)
128 to 131 °C | CCOC(=O)C(=CNc1cc(C)nn1-c1ccccn1)C(=O)OCC
280 °C | COc1ccc(C(=O)O)c2c1oc1ccccc12
192 to 193 °C | CC(C)(C)CC(NC(=O)c1ccc(C(F)(F)F)cc1)NC(=NS(=O)(=O)C(F)(F)F)Nc1cccnc1 (stereo not given)

melting point | Compound
166 to 167 °C | NNC(=S)c1ccc2ccccc2c1
198 to 199 °C | CCCn1nc2c(N)nc3ccccc3c2c1CCNC(=O)c1ccc(F)cc1
> 275 °C | N#Cc1ccc(N2CCc3[nH]c4c(cnc5cc(Cl)ccc54)c3C2)cc1
123 to 125 °C | CC=Cc1c(N)nc(-c2ccc(C(F)(F)F)cc2)nc1C(=O)OC
171 to 172 °C | NC(=O)N(O)CCOc1ccc2c(c1)CCN(Cc1ccc(-c3ccc(F)cc3)cc1)C2=O
221 to 224 °C | COC(=O)c1ccc2oc3c(c(=O)c2c1)CCC3=Cc1cc(OC)c(OC)cc1OC
155 to 159 °C | Cc1cc(O)c(Oc2ccccc2C#N)cc1-c1ccsc1
73 to 75 °C | CC[C@@H](c1ccc(F)cc1)N(Cc1ccc(C(=O)OC)cc1)S(=O)(=O)c1ccc(Cl)cc1
125 to 130 °C | O=C(Cc1cc(F)cc(F)c1)NCC(=O)N[C@@H]1C(=O)Nc2ccccc2S[C@@H]1c1ccccc1
285 to 290 °C | Fc1ccc(-c2[nH]nc(Br)c2-c2ccncc2)cc1F
210 °C | C=CCS(=O)(=O)c1ccc(N2CC=C(c3ccc(Cl)cc3)N2)cc1
240 to 245 °C | CCCCCCCCCCCCCCCC(=O)NCCCC[C@H](N)C(=O)O
256 to 259 °C | COc1ccc(Nc2nc(N3CCOCC3)nc(-n3c(C(F)F)nc4c(OC)cccc43)n2)nn1
50 to 51 °C | CCNc1c(OC)cc(C(=O)OC)cc1OC
32 to 34 °C | COC(=O)CC(NC1CC1)=C(C(=O)OC)C(=O)C(F)(F)C(F)(F)F
307 °C | Cc1cc(-c2cc(C(F)F)n3ncc(C(=O)Nc4nc(C)c(S(N)(=O)=O)s4)c3n2)ccc1C(F)(F)F
137 °C | CC(C)(C)c1ccc(COc2ccc(S(=O)(=O)NC[C@@H](C(=O)NO)N3CCOCC3)cc2)cc1
168 to 170 °C | COc1ccc2[nH]cc(CCC(=O)Nc3ccccc3C(=O)O)c2c1
134 to 135 °C | Cc1cc(Nc2ccnc(Nc3ccc(S(=O)(=O)N(CCN)C4CCNCC4)cc3)n2)ccc1F
122 to 124 °C | Cc1cc(C)n(-c2ccc(OC=C3C=CC=CC3n3nnn(C)c3=O)c(Cl)c2)n1 (stereo not given)
126 to 127 °C | CCc1cc(C(C)=O)c(O)cc1OCCCCCCc1nnn[nH]1
55 to 57 °C | COC(=O)c1cnccc1NC(=O)C(C)CSC(C)=O (stereo not given)
71 to 73 °C | CCOC(=O)N(c1ccccc1[N+](=O)[O-])c1cccc(C)c1C
194 to 196 °C | CC(=O)On1c(=N)n[n+]([O-])c2ccccc21

melting point | Compound
108 to 110 °C | O=C1NC(=O)c2cc(Nc3ccccc3I)c(Nc3ccccc3I)cc21
125 to 126 °C | Cc1cc(=O)[nH]nc1-c1ccccc1
147 to 158 °C | CN1C(=O)NC(=O)C1=Cc1cc(OCCCS(=O)(=O)c2ccccc2)ccc1[N+](=O)[O-]
169 to 170 °C | CCN1C(=O)C(C)(C)C(=O)N(C)c2cc(CN(CCn3cc(C)c4oc(C)cc4c3=O)C(C)c3cccnc3C)ccc21 (stereo not given)
139 to 141 °C | CC(C)(C)OC(=O)NC1Cc2ccccc2N(c2ccccc2)C1 (stereo not given)
189 to 192 °C | CSc1ccc(-c2oc3ccccc3c(=O)c2-c2ccc(C(F)(F)F)cc2)cc1
161 to 162 °C | CN(C)Cc1c[nH]c2ncccc12
181 °C | O=S1(=O)CCC(=NO)C1=NO
190 to 191 °C | CS(=O)(=O)Nc1ccc(C(=O)C2CCN(CCc3cn4ccccc4n3)CC2)cc1
103 to 104 °C | COc1ccc(CCNC(=O)N(C)O)cc1OC
128 to 130 °C | Cc1ccc2c(c1)C(=O)C1=NCCCN12
145 to 147 °C | O=C(O)C=Cc1cccc(OCc2nc(-c3ccccc3)c(-c3ccccc3)o2)c1
39 to 40 °C | COC(=O)CCc1conc1-c1ccc(F)c(Cl)c1
256 to 259 °C | Cc1c(-c2ccccc2)n(-c2ccc(F)cc2)c(-c2ccccc2)cc1=O
199 to 201 °C | COc1c(Cc2ccccc2)cc(C(N)=O)c2ccccc12
269 to 272 °C | OC1c2ccccc2-c2[nH]nc(-c3ccccc3)c21 (stereo not given)
117 to 118 °C | CC(C)Cn1c(N(C)C(=O)OC(C)(C)C)c(OCCCC(F)(F)F)c2cc(OCc3ccccc3)ccc2c1=O
175 °C | COc1ccnc(CSc2nc3c(C(F)(F)F)cccc3[nH]2)c1C
193 to 196 °C | NC(=O)CCN1CCC(CNc2ccc(Cl)cc2C(=O)Nc2ccc(Cl)cn2)CC1
159 to 160 °C | Cc1oc(-c2ccc3ccccc3c2)nc1COc1ccc(/C=C/CO)cc1
298 to 300 °C | O=C(O)c1c(-c2ccccc2)oc2ccccc2c1=O

Compound | melting point
CNc1nc(CCN2CCC(Nc3nc4ccccc4n3Cc3ccc(F)cc3)CC2)c(C)s1 | 182 °C
Clc1cccc(OC2CCN(CCc3c[nH]c4ccccc34)CC2)c1 | 120 to 123 °C
CN1Cc2c(C#CC3(O)CCCC3)ncn2-c2cccc(Cl)c2C1=O | 207 to 208 °C
CN1CCC(O)(c2cccc(F)c2F)C1 (single isomer, unassigned; (-)) | 131 to 132 °C
Cc1nc(C(Cl)(Cl)Cl)nc(OC(=O)N(C)C)c1Cl | 87 to 88 °C
CCC(C=O)(CC)SN(C)C(=O)ON=C1SC(C)(C)C(=O)N1C | 105 to 106 °C
Clc1ccc(-c2cc(C3=CCN(Cc4c[nH]c5ncccc45)CC3)on2)cc1 | 245 to 247 °C

— a melting point compilation (Tetko et al.; mined from patent text by program, amines drawn as free bases though some values may be those of a salt)
